Reference: article PMC9959258, “Discovery of Polyphenolic Natural Products as SARS-CoV-2 M^pro Inhibitors for COVID-19” (Pharmaceuticals, 2023)
“Also recorded” adds a separate entry of the source. Where two headings read alike, the source gives them in different places.

What was measured:
SARS-CoV-2 M^pro = SARS-CoV-2 M^pro (Severe acute respiratory syndrome coronavirus 2, UniProt P0DTD1); assay: biochemical; assay type: biochemical; conditions: for inhibition at 10 µM: read-out: SARS-CoV-2 M^pro % Inhibition at 10 μM; for M^pro inhibition, result in words: tested at 10 µM
[1] = molecular target: T1, malate dehydrogenase (MDH) (Sus scrofa, UniProt P00346); assay type: biochemical; conditions: 31.6 µM, with or without 0.01% (v/v) Triton X-100
T1 sequence (P00346 25-338): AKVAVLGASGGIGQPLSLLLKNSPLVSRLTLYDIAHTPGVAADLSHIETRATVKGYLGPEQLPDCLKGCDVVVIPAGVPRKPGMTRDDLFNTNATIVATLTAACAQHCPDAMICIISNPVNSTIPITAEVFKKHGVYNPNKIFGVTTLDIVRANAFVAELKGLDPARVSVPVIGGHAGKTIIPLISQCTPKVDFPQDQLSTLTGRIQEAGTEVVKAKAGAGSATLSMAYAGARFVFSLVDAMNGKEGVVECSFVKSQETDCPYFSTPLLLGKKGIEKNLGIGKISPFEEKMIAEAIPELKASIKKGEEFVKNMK

[2] = Dynamic light scattering (DLS) for colloidal particle formation; assay type: physicochemical; conditions: 31.6 µM, 50 mM KPi pH 7.0, 1% DMSO
[3] = tested on: SARS-CoV-2 isolate NK, Pango lineage B.1.513; assay: microbe, parasite or virus in culture; assay type: cell-based; conditions: for inhibition of viral titers: 10 µM; for EC50: read-out: EC50 antiviral activity; for inhibition at 10 µM: Severe acute respiratory syndrome coronavirus 2, Calu-3, 24 h, read-out: inhibition of viral titers
HIV-1 protease = conditions: background statement, no reference given; cited from earlier work
[4] = tested on: prostaglandin E2 (PGE2) synthesis; conditions: background statement, no reference given; read-out: IC50 for reduction of prostaglandin E2 synthesis; cited from earlier work
nitric oxide synthesis = conditions: background statement, no reference given; read-out: IC50 for reduction of nitric oxide synthesis; cited from earlier work
fatty acid synthase = conditions: background statement, no reference given; cited from earlier work
[5] = FRET assay, 50 nM M^pro, 10 min preincubation
[6] = compound at 10 μM, FRET assay, 50 nM M^pro
[7] = Severe acute respiratory syndrome coronavirus 2, 24 h

Compound: C=C(C)C1CCC2=CC(=O)CC(C)C2(C)C1 (single isomer, unassigned; (+)) [(+)-Nootkaton]
- IC50 (SARS-CoV-2 M^pro; [5]): > 10 µM
- inhibition at 10 µM (SARS-CoV-2 M^pro; [6]): 32%

Compound: C=C1C(=O)OC2C1CCC(C)=CCCC1(C)OC21 (single isomer, unassigned; (-)) [(−)-Parthenolide]
- IC50 (SARS-CoV-2 M^pro; [5]): > 10 µM
- inhibition at 10 µM (SARS-CoV-2 M^pro; [6]): 20.1%

Compound: CCOC1=C(O)C(=O)O[C@@H]1[C@@H](O)CO [3-O-Ethyl-L-ascorbic acid]
- IC50 (SARS-CoV-2 M^pro): > 10 µM
- inhibition at 10 µM (SARS-CoV-2 M^pro; [6]): 24.9%

Compound: CC1=C2C3OC(=O)C(C)C3CCC2(C)C=CC1=O (stereo not drawn) [(−)-α-Santonin]
- IC50 (SARS-CoV-2 M^pro; [5]): > 10 µM
- inhibition at 10 µM (SARS-CoV-2 M^pro; [6]): 24.1%

Compound: C=C1C(=O)OC2CC3(C)CCCC(C)C3=CC12 (stereo not shown) [Alantolacton]
- IC50 (SARS-CoV-2 M^pro; [5]): > 10 µM
- inhibition at 10 µM (SARS-CoV-2 M^pro; [6]): 27.6%

Compound: C=C1C(=O)O[C@@H]2/C=C(\C)CC/C=C(\C)CC[C@@H]12 [Costunolide]
- IC50 (SARS-CoV-2 M^pro; [5]): > 10 µM
- inhibition at 10 µM (SARS-CoV-2 M^pro; [6]): 28%

Compound: C=C1CC[C@H]2C(=C)CC[C@H]3C(=C)C(=O)O[C@@H]3[C@@H]12 [Dehydrocostus lactone]
- IC50 (SARS-CoV-2 M^pro; [5]): > 10 µM
- inhibition at 10 µM (SARS-CoV-2 M^pro; [6]): 13.4%

Compound: O=c1c(O)c(-c2ccc(O)c(O)c2)oc2cc(O)ccc12 [Fisetin]
- IC50 (SARS-CoV-2 M^pro; [5]): > 10 µM
- SARS-CoV-2 M^pro % Inhibition at 10 μM (SARS-CoV-2 M^pro; [6]): −11.21%

Compound: CC(C)=CCC[C@]1(C)C=Cc2c(O)c3c(c(CC=C(C)C)c2O1)O[C@]12C(=C[C@@H]4C[C@H]1C(C)(C)O[C@@]2(C/C=C(/C)C(=O)O)C4=O)C3=O [Gambogic acid]
- IC50 (SARS-CoV-2 M^pro; [5]): > 10 µM
- inhibition at 10 µM (SARS-CoV-2 M^pro; [6]): 22.8%

Compound: O=C1O[C@H]([C@@H](O)CO)C(O)=C1O [L-Ascorbic acid]
- IC50 (SARS-CoV-2 M^pro; [5]): > 10 µM
- inhibition at 10 µM (SARS-CoV-2 M^pro; [6]): 22.2%

Compound: O=C(OC1Cc2c(O)cc(O)cc2OC1c1cc(O)c(O)c(O)c1)c1cc(O)c(O)c(O)c1 [L-Epigallocatechin gallate]
- MDH inhibition with 0.01% Triton X-100 (detergent reversibility) [1]: reversed in the presence of detergent
- inhibition at 10 µM (SARS-CoV-2 M^pro; [6]): 105%
- M^pro inhibition, result in words (SARS-CoV-2 M^pro): completely inhibit the SARS-CoV-2 M^pro activity
- colloidal-like particle formation by DLS ([2]; listed as ECGC): do not form colloidal-like particles
- colloidal-like particle formation by DLS ([2]; listed as EGCG): neither of these compounds produced colloidal-like particles
- inhibition of viral titers [3]: 81.4%
- EC50 [3]: 0.115 µM

Compound: COC(=O)C1=CO[C@@H](O[C@@H]2O[C@H](CO)[C@@H](O)[C@H](O)[C@H]2O)[C@@H]2[C@@H](C)[C@@H](O)C[C@H]12 [Loganin]
- IC50 (SARS-CoV-2 M^pro): > 10 µM
- inhibition at 10 µM (SARS-CoV-2 M^pro; [6]): 29.4%

Compound: O=c1cc(-c2ccc(O)c(O)c2)oc2cc(O)cc(O)c12 [Luteoline]
- IC50 (SARS-CoV-2 M^pro; [5]): > 10 µM
- inhibition at 10 µM (SARS-CoV-2 M^pro; [6]): 9.65%
- M^pro inhibition, result in words (SARS-CoV-2 M^pro): unable to inhibit M^pro

Compound: CC(C)C(=O)OC[C@H]1O[C@@H](n2ccc(NO)nc2=O)[C@H](O)[C@@H]1O [Molnupiravir, reference compound]
- EC50 [3, 7]: 0.00545 µM

Compound: C=C1C(=O)[C@]23[C@H](O)[C@H]1CC[C@H]2[C@@]12CO[C@]3(O)[C@@H](O)[C@@H]1C(C)(C)CC[C@@H]2O [Oridonin]
- inhibition at 10 µM (SARS-CoV-2 M^pro; [6]): 81.9%
- EC50 [3, 7]: 0.0128 µM
- inhibition at 10 µM [3]: 89%

Compound: CCCCCCCCCCC[C@@H](C[C@@H]1OC(=O)[C@H]1CCCCCC)OC(=O)[C@H](CC(C)C)NC=O [Orlistat, reference compound]
- IC50 (SARS-CoV-2 M^pro; [5]): > 10 µM
- inhibition at 10 µM (SARS-CoV-2 M^pro; [6]): 21%

Compound: COc1ccc2ccc(=O)oc2c1CC=C(C)C [Osthole]
- IC50 (SARS-CoV-2 M^pro; [5]): > 10 µM
- inhibition at 10 µM (SARS-CoV-2 M^pro; [6]): 4.98%

Compound: Oc1cc(O)cc(/C=C/c2ccc(O)c(O)c2)c1 [Piceatannol]
- IC50 (SARS-CoV-2 M^pro; [5]): 2.03 µM
- inhibition at 10 µM (SARS-CoV-2 M^pro; [6]): 76.9%
- EC50 [3, 7]: 0.00342 µM
- inhibition at 10 µM [3]: 81%

Compound: C[C@@H]1O[C@@H](Oc2c(-c3ccc(O)c(O)c3)oc3cc(O)cc(O)c3c2=O)[C@H](O)[C@H](O)[C@H]1O [Quercitrin]
- IC50 (SARS-CoV-2 M^pro; [5]): > 10 µM
- inhibition at 10 µM (SARS-CoV-2 M^pro; [6]): 2.42%
- M^pro inhibition, result in words (SARS-CoV-2 M^pro): unable to inhibit the M^pro enzyme

Compound: C[C@]12CC[C@H](O)C[C@H]1CC[C@@H]1[C@@H]2CC[C@]2(C)[C@@H](c3ccc(=O)oc3)C[C@H]3O[C@]132 [Resibufogenin]
- IC50 (SARS-CoV-2 M^pro): > 10 µM
- inhibition at 10 µM (SARS-CoV-2 M^pro): 6.32%

Compound: Oc1ccc(/C=C/c2cc(O)cc(O)c2)cc1 [Resveratrol]
- IC50 (SARS-CoV-2 M^pro; [5]): > 10 µM
- inhibition at 10 µM (SARS-CoV-2 M^pro; [6]): 5.96%
- M^pro inhibition, result in words (SARS-CoV-2 M^pro): unable to inhibit the enzyme

Compound: O=c1c(O)c(-c2cc(O)c(O)c(O)c2)oc2cc(O)ccc12 [Robinetin]
- MDH inhibition with 0.01% Triton X-100 (detergent reversibility) [1]: reversed in the presence of detergent
- IC50 (SARS-CoV-2 M^pro; [5]): 0.96 µM
- inhibition at 10 µM (SARS-CoV-2 M^pro; [6]): 86.1%
- colloidal-like particle formation by DLS [2]: neither of these compounds produced colloidal-like particles; also recorded: do not form colloidal-like particles
- inhibition of viral titers [3]: 89.6%
- EC50 [3]: 0.0013 µM

Compound: O=C(/C=C/c1ccc(O)c(O)c1)O[C@H](Cc1ccc(O)c(O)c1)C(=O)O [Rosmarinic acid]
- IC50 (SARS-CoV-2 M^pro; [5]): 6.84 µM
- inhibition at 10 µM (SARS-CoV-2 M^pro; [6]): 50.6%
- EC50 [3, 7]: 0.0167 µM
- inhibition at 10 µM [3]: 81%

Compound: O=C(/C=C/c1ccc(O)c(O)c1/C=C/c1ccc(O)c(O)c1)O[C@H](Cc1ccc(O)c(O)c1)C(=O)O [Salvianolic acid A]
- inhibition at 10 µM (SARS-CoV-2 M^pro; [6]): 50.8%

Compound: O=c1cc(-c2ccc(O)cc2)oc2cc(O)c(O)c(O)c12 [Scutellarein]
- inhibition at 10 µM (SARS-CoV-2 M^pro; [6]): 76.1%
- EC50 [3, 7]: 0.00257 µM
- inhibition at 10 µM [3]: 87%

Compound: COC1=C[C@@H]2[C@@H]3Cc4ccc(OC)c(O)c4[C@]2(CCN3C)CC1=O [Sinomenine]
- IC50 (SARS-CoV-2 M^pro): > 10 µM
- inhibition at 10 µM (SARS-CoV-2 M^pro): 4.8%

Compound: Cc1coc2c1C(=O)C(=O)c1c-2ccc2c(C)cccc12 [Tanshinone I]
- inhibition at 10 µM (SARS-CoV-2 M^pro; [6]): 7.03%

Compound: O=c1cc(-c2cc(O)c(O)c(O)c2)oc2cc(O)cc(O)c12 [Tricetin]
- IC50 (SARS-CoV-2 M^pro; [5]): 7.84 µM
- inhibition at 10 µM (SARS-CoV-2 M^pro; [6]): 72.3%

Compound: COc1c(O)cc2oc3cc(O)c(CC=C(C)C)c(O)c3c(=O)c2c1CC=C(C)C [α-Mangostin]
- IC50 (HIV-1 protease): 5.12 µM
- IC50 (SARS-CoV-2 M^pro; [5]): 25.1 µM
- IC50 [4]: 12.4 µM
- IC50 (nitric oxide synthesis): 11.1 µM
- IC50 (fatty acid synthase): 5.54 µM

Compound: Myricitrin
- SARS-CoV-2 M^pro % Inhibition at 10 μM (SARS-CoV-2 M^pro; [6]): 11.67%
- M^pro inhibition, result in words (SARS-CoV-2 M^pro): did not, however, inhibit M^pro
- M^pro inhibition, result in words (SARS-CoV-2 M^pro; listed as myricitrin): did not inhibit M^pro
